Laboratory results: publication PMC6129397 (Xenobiotica; the fate of foreign compounds in biological …, 2017)
Read-outs that look alike come from different tables or passages of the source.

What was measured:
[1] = molecular target: T1, glucocorticoid receptor (GR) (Homo sapiens, UniProt P04150); experiment: Glucocorticoid receptor; format: cell-based
T1 sequence (P04150 1-777): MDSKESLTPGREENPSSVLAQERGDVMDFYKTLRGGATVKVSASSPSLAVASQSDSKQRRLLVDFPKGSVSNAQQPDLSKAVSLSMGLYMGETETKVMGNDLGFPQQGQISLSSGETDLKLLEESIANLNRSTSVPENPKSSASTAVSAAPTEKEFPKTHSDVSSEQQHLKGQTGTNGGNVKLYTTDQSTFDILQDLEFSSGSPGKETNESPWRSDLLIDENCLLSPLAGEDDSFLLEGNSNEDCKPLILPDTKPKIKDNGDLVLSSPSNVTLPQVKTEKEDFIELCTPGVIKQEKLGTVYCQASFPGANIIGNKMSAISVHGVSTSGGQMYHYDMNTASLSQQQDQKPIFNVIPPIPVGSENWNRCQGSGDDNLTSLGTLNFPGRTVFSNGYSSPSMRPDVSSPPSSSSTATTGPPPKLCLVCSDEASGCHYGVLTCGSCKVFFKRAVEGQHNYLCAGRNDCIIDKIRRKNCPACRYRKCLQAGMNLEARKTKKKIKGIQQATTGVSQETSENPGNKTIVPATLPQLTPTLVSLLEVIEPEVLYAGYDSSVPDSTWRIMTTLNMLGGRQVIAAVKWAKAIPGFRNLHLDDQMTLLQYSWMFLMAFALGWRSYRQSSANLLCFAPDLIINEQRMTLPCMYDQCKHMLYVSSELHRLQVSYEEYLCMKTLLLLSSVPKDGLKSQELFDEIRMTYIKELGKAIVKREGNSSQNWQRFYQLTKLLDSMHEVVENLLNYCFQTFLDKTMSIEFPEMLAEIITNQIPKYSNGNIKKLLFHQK

[2] = tested on: human liver microsomes (HLM); experiment: Oxidation-glucuronidation assay with HLMs; format: in vitro ADME
[3] = molecular target: T2, progesterone receptor (PR) (Homo sapiens, UniProt P06401); experiment: Progesterone receptor; format: cell-based
T2 sequence (P06401 1-933): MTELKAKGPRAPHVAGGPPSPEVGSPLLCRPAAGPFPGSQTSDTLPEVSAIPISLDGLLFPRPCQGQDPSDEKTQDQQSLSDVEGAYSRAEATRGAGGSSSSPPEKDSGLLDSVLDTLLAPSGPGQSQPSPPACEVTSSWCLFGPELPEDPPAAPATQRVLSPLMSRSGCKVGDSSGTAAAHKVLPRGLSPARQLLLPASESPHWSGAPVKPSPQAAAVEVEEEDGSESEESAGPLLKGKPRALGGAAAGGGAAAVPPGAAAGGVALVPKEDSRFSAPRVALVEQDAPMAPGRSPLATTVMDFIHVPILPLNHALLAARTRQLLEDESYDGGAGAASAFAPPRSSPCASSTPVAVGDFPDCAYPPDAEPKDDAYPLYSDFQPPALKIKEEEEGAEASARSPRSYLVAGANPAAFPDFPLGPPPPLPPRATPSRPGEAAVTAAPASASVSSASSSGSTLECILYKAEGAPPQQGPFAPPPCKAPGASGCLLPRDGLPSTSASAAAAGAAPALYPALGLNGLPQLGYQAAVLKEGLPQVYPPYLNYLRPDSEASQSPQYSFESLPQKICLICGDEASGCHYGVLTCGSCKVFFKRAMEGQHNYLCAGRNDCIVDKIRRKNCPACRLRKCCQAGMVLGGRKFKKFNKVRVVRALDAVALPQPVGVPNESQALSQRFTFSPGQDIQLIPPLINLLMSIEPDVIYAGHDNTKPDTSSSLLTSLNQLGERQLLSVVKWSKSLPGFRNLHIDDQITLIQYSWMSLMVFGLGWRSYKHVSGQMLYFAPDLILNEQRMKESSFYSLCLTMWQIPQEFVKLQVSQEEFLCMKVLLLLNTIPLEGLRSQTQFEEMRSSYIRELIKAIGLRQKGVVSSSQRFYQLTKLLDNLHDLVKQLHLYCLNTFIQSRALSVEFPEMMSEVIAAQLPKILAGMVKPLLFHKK

[4] = tested on: HLMs
[5] = T47D cells, 8 h, 10 nM, versus ethanol

SMILES: C[C@@H]1C[C@H]2[C@@H]3CCC4=CC(=O)C=C[C@]4(C)[C@@]3(F)[C@@H](O)C[C@]2(C)[C@@]1(O)C(=O)CO [Dexamethasone, dexamethasone]
- average mRNA fold change GILZ ([1]; MDA-MB-231 cells, 4 h, 0.1 μM): 18.5 fold change
- average mRNA fold change SGK1 ([1]; MDA-MB-231 cells, 4 h, 0.1 μM): 5.6 fold change

SMILES: CC(=O)O[C@]1(C(C)=O)CC[C@H]2[C@@H]3C=C(C)C4=CC(=O)CC[C@]4(C)[C@H]3CC[C@@]21C [MA, Megestrol acetate]
- activity on the GR ([1]; in words): showed activity
- glucuronide formation by HLM ([2]; UDPGA alone (data not shown)): does not form any glucuronides
- glucuronide formation by HLM ([2]; co-incubation with both NADPH and UDPGA, 24 hrs): two glucuronides were detected
- pharmacologic activity on the PR ([3]; in words): significant pharmacologic activity

SMILES: CCC(=O)[C@@]1(C)CC[C@H]2[C@@H]3CCC4=CC(=O)CCC4=C3CC[C@@]21C [Metabolite R5020]
- average mRNA fold change E2F1 [3, 5]: 4.8 ± 0.4 fold change
- average mRNA fold change FKBP5 [3, 5]: 9.5 ± 0.3 fold change
- average mRNA fold change GREB1 [3, 5]: 2.2 ± 0.1 fold change

SMILES: CC(=O)N1CCN(c2ccc(OCC3COC(Cn4ccnc4)(c4ccc(Cl)cc4Cl)O3)cc2)CC1 (centres unmarked) [ketoconazole]
- inhibition of M1 ([4]; 28 μM MA, ketoconazole 1 μM): 96.2%
- inhibition of M2 ([4]; 28 μM MA, ketoconazole 1 μM): 100%
- inhibition of M1 ([4]; 62 μM MA, ketoconazole 1 μM): 100%
- inhibition of M2 ([4]; 62 μM MA, ketoconazole 1 μM): 100%

SMILES: CO[C@H]1C[C@H](O[C@H]2[C@H](C)[C@@H](O[C@@H]3O[C@H](C)C[C@H](N(C)C)[C@H]3OC(C)=O)[C@@H](C)C[C@@]3(CO3)C(=O)[C@H](C)[C@@H](OC(C)=O)[C@@H](C)[C@@H](C)OC(=O)[C@@H]2C)O[C@@H](C)[C@@H]1OC(C)=O [troleandomycin]
- inhibition of M1 ([4]; 28 μM MA, troleandomycin 50 μM): 93.2%
- inhibition of M2 ([4]; 28 μM MA, troleandomycin 50 μM): 100%
- inhibition of M1 ([4]; 62 μM MA, troleandomycin 50 μM): 94.4%
- inhibition of M2 ([4]; 62 μM MA, troleandomycin 50 μM): 100%
